Experimental data: patent US12697335B2, “Method for treating immune toxicities induced by immune checkpoint inhibitors” (ASSISTANCE PUBLIQUE—HÔPITAUX DE PARIS, priority 2020, dated 2026)

How the values were obtained:
[1] = Eleven ICI patients with irAE treated with ruxolitinib in combination with corticosteroids and abatacept
[2] = human, in vivo; cited from earlier work
[3] = Adverse events on nivolumab second-line therapy for metastatic pulmonary adenocarcinoma; type: in vivo, human; settings: after 2 treatments with nivolumab (4 weeks after treatment initiation)
Source text: Myositis was suspected due to increased creatine kinase levels and confirmed by muscle biopsy. Myocarditis was confirmed with troponin increase, premature ventricular contractions and deterioration of left-ventricular ejection fraction with no signs of acute coronary syndrome on angiogram.

## N#CC[C@H](C1CCCC1)n1cc(-c2ncnc3[nH]ccc23)cn1 [Ruxolitinib, (3R)-3-Cyclopentyl-3-[4-(7H-pyrrolo[2,3-d]pyrimidin-4-yl)pyrazol-1-yl]propanenitrile]
human, in vivo
  effect on tumor progression: no effect
  tumor progression: no evidence of tumor progression
Oral ruxolitinib, summary of the case
  relief of myotoxicity: symptomatic relief
person, ruxolitinib 15 mg twice daily
  oculomotor disorders: improvement
person, ruxolitinib 15 mg twice daily, corticosteroids tapered
  troponin: prompt decrease
Ruxolitinib continued for 1 month at 15 mg twice daily
  myotoxicity outcome: complete resolution
[1]; first 3 months follow-up, 11 patients
  deaths not related to irAE (hemorrhagic choc n=1; COVID19 n=2): three
[1]; first 3 months follow-up, 11 patients, myasthenia like symptoms, hepatitis, thyroiditis
  evolution of concurrent irAE: evolved favorably
[1]; human, in vivo
  death related to an irAE: no death

## abatacept
[2]
  effect in patients with myotoxicity: positive effect

## nivolumab: PD-1 inhibitor: IgG4 PD1 antibody
[3]
  adverse events developed: developed myalgia, diplopia and bilateral ptosis
